According to US11371055B2, “Herbicide resistance genes” (CORTEVA AGRISCIENCE LLC, priority 2005, dated 2022):

Tests used:
[1] = tested on: AAD-12 (v1) canola events 3759(20)018.001 and 3759(18)030.001; assay: Field tolerance of canola, AAD-12 events; format: in vivo, Brassica napus; conditions: for average injury: 14DAT
Method: Field level tolerance trial was conducted on two AAD-12 (v1) events 3759(20)018.001 and 3759(18)030.001 and a wild-type canola (Nex710) in Fowler, Ind. The experimental design was a randomized complete block design with 3 replications. Herbicide treatments were 2,4-D (dimethylamine salt) at 280, 560, 1120, 2240 and 4480 g ac/ha, triclopyr at 840 g ae/ha, fluroxypyr at 280 g ae/ha and an untreated control. Within each herbicide treatment, single 20 ft row/event for event 3759(18)030.0011, 3759(18)018.001 and wild-type line (Nex710) were planted with a 4 row drill on 8 inch row spacing. Herbicide treatments were applied when canola reached the 4-6 leaf stage using compressed air backpack sprayer delivering 187 L/ha carrier volume at 130-200 kpa pressure. […]

[2] = tested on: AAD-12 (v1) pDAB4101 corn events (4101(0)003.R.003.AF and 4101(0)005.R001.AF); assay: Field tolerance of corn: visual injury and brace root injury, AAD-12 events; format: in vivo, Zea mays
Method: Seeds were planted with cone planter on 40-inch row spacing at Wayside and 30 inch spacing at Fowler. […] Herbicide treatments were 2,4-D (dimethylamine salt) at 1120, 2240 and 4480 g ae/ha, triclopyr at 840 g ae/ha, fluroxypyr at 280 g ae/ha and an untreated control. The AAD-12 (v1) events contained the AHAS gene as a selectable marker. The F2 corn events were segregating so the AAD-12 (v1) plants were treated with imazethapyr at 70 g ae/ha to remove the null plants. Herbicide treatments were applied when corn reached the V6 stage using compressed air backpack sprayer delivering 187 L/ha carrier volume at 130-200 kpa pressure. […]

[3] = tested on: AAD-12 (v1) tobacco lines (pDAS1580-[1]-018.001, pDAS1580-[1]-004.001, pDAS1580-[1]-020.016); assay: Field tolerance of tobacco, AAD-12 lines; format: in vivo, Nicotiana tabacum
Method: (§1) Field level tolerance trials were conducted on three AAD-12 (v1) lines (events pDAS1580-[1]-018.001, pDAS1580-[1]-004.001 and pDAS1580-[1]-020.016) and one wild-type line (KY160) at field stations in Indiana and Mississippi. Tobacco transplants were grown in the greenhouse by planting T1 seed in 72 well transplant flats (Hummert International) containing Metro 360 media according to growing conditions indicated above. The null plants were selectively removed by Liberty selection as previously described. The transplant plants were transported to the field stations and planted at either 14 or 24 inches apart using industrial vegetable planters. Drip irrigation at the Mississippi site and overhead irrigation at the Indiana site were used to keep plants growing vigorously.
(§2) The experimental design was a split plot design with 4 replications. The main plot was herbicide treatment and the sub-plot was tobacco line. The herbicide treatments were 2,4-D (dimethylamine salt) at 280, 560, 1120, 2240 and 4480 g ac/ha, triclopyr at 840 g ae/ha, fluroxypyr at 280 g ac/ha and an untreated control. Plots were one row by 25-30 ft. Herbicide treatments were applied 3-4 weeks after transplanting using compressed air backpack sprayer delivering 187 L/ha carrier volume at 130-200 kpa pressure. Visual rating of injury, growth inhibition, and epinasty were taken at 7, 14 and 21 days after treatment.

[4] = tested on: wild-type tobacco line (KY160); assay: Field tolerance of tobacco, wild-type line; format: in vivo, Nicotiana tabacum; conditions: for injury: 14 DAT; for Average % Injury across locations at 14 DAT: Wild type
Method: as §1, §2

wildtype tobacco = assay: Auxinic herbicide cross tolerance of stacked tobacco, wildtype; format: in vivo, Nicotiana tabacum; conditions: KY160 wildtype control
Method: (§3) Homozygous AAD-12 (v1) (pDAS1580) and AAD-1 (v3) (pDAB721) plants (see PCT/US2005/014737 for the latter) were both reciprocally crossed and F1 seed was collected. The F1 seed from two reciprocal crosses of each gene were stratified and treated 4 reps of each cross were treated under the same spray regimen as used for the other testing with one of the following treatments: 70, 140, 280 g ac/ha fluroxypyr (selective for the AAD-12 (v1) gene); 280, 560, 1120 g ae/ha R-dichloroprop (selective for the AAD-1 (v3) gene); or 560, 1120, 2240 g ae/ha 2,4-D DMA (to confirm 2,4-D tolerance). Homozygous T2 plants of each gene were also planted for use as controls. Plants were graded at 3 and 14 DAT.

[5] = tested on: AAD-12 x AAD-1 F1 cross tobacco; assay: Auxinic herbicide cross tolerance of stacked tobacco, F1 cross; format: in vivo, Nicotiana tabacum; conditions: AAD-12 (v1) x AAD (v3) F1
Method: as §3

[6] = tested on: AAD-1 (v3) (pDAB721) T2 tobacco plants; assay: Auxinic herbicide cross tolerance of stacked tobacco, AAD-1 T2; format: in vivo, Nicotiana tabacum
Method: as §3

[7] = 2× rate of triclopyr (840 g ae/ha), 14 DAT

## O=C(O)COc1ccc(Cl)cc1Cl [2,4-D, 2,4-dichlorophenoxyacetic acid]
[1]; 2,4-D at the 1× rate
  average injury: 2%
[1]; 2,4-D at the 2× rate
  average injury: 3%
[1]; 2,4-D at the 4× rate
  average injury: 2%
[1]; AAD-12 event 3759(18)030.001, 280 GM AE/HA
  % Visual Injury at 14 DAT: 0 b %
[1]; AAD-12 event 3759(18)030.001, 560 GM AE/HA
  % Visual Injury at 14 DAT: 0 b %
[1]; AAD-12 event 3759(18)030.001, 1120 GM AE/HA
  % Visual Injury at 14 DAT: 2 ab %
[1]; AAD-12 event 3759(18)030.001, 2240 GM AE/HA
  % Visual Injury at 14 DAT: 3 ab %
[1]; AAD-12 event 3759(20)018.001, 280 GM AE/HA
  % Visual Injury at 14 DAT: 0 a %
[1]; AAD-12 event 3759(20)018.001, 560 GM AE/HA
  % Visual Injury at 14 DAT: 0 a %
[1]; AAD-12 event 3759(20)018.001, 1120 GM AE/HA
  % Visual Injury at 14 DAT: 2 a %
[1]; AAD-12 event 3759(20)018.001, 2240 GM AE/HA
  % Visual Injury at 14 DAT: 3 a %
[2]; 2,4-D at the 1, 2 and 4× rates, V6 stage, 14 DAT
  visual injury: 0%
[2]; 4480 g ae/ha of 2,4-D
  brace root injury: no brace root injury
[2]; AAD-12 4101(0)003.R.003.AF, 1120 g ae/ha
  % Visual Injury 14DAT: 0%
[2]; AAD-12 4101(0)003.R.003.AF, 2240 g ae/ha
  % Visual Injury 14DAT: 0%
[2]; AAD-12 4101(0)003.R.003.AF, 4480 g ae/ha
  % Visual Injury 14DAT: 0%
[2]; AAD-12 4101(0)005.001.AF, 1120 g ae/ha
  % Visual Injury 14DAT: 0%
[2]; AAD-12 4101(0)005.001.AF, 2240 g ae/ha
  % Visual Injury 14DAT: 1%
[2]; AAD-12 4101(0)005.001.AF, 4480 g ae/ha
  % Visual Injury 14DAT: 1%
[2]; AAD-12 event 4101(0)003.R.003.AF, 1120 g ae/ha
  Brace Root Injury Rating (0-10 scale) 28DAT: 0
[2]; AAD-12 event 4101(0)003.R.003.AF, 2240 g ae/ha
  Brace Root Injury Rating (0-10 scale) 28DAT: 0
[2]; AAD-12 event 4101(0)003.R.003.AF, 4480 g ae/ha
  Brace Root Injury Rating (0-10 scale) 28DAT: 0
[2]; AAD-12 event 4101(0)005.001.AF, 1120 g ae/ha
  Brace Root Injury Rating (0-10 scale) 28DAT: 0
[2]; AAD-12 event 4101(0)005.001.AF, 2240 g ae/ha
  Brace Root Injury Rating (0-10 scale) 28DAT: 0
[2]; AAD-12 event 4101(0)005.001.AF, 4480 g ae/ha
  Brace Root Injury Rating (0-10 scale) 28DAT: 0
[3]; 2,4-D at the 2× rate, 14DAT
  average injury: 1%
[3]; 2,4-D at the 4× rate, 14DAT
  average injury: 4%
[3]; 2,4-D at the 8× rate, 14 DAT
  average injury: 4%
[3]; pDAS1580-[1]-004.001, 280 GM AE/HA
  Average % Injury across locations at 14 DAT: 0%
[3]; pDAS1580-[1]-004.001, 560 GM AE/HA
  Average % Injury across locations at 14 DAT: 0%
[3]; pDAS1580-[1]-004.001, 1120 GM AE/HA
  Average % Injury across locations at 14 DAT: 1%
[3]; pDAS1580-[1]-004.001, 2240 GM AE/HA
  Average % Injury across locations at 14 DAT: 4%
[3]; pDAS1580-[1]-004.001, 4480 GM AE/HA
  Average % Injury across locations at 14 DAT: 4%
[3]; pDAS1580-[1]-018.001, 280 GM AE/HA
  Average % Injury across locations at 14 DAT: 0%
[3]; pDAS1580-[1]-018.001, 560 GM AE/HA
  Average % Injury across locations at 14 DAT: 2%
[3]; pDAS1580-[1]-018.001, 1120 GM AE/HA
  Average % Injury across locations at 14 DAT: 2%
[3]; pDAS1580-[1]-018.001, 2240 GM AE/HA
  Average % Injury across locations at 14 DAT: 4%
[3]; pDAS1580-[1]-018.001, 4480 GM AE/HA
  Average % Injury across locations at 14 DAT: 4%
[3]; pDAS1580-[1]-020.016, 280 GM AE/HA
  Average % Injury across locations at 14 DAT: 0%
[3]; pDAS1580-[1]-020.016, 560 GM AE/HA
  Average % Injury across locations at 14 DAT: 0%
[3]; pDAS1580-[1]-020.016, 1120 GM AE/HA
  Average % Injury across locations at 14 DAT: 1%
[3]; pDAS1580-[1]-020.016, 2240 GM AE/HA
  Average % Injury across locations at 14 DAT: 4%
[3]; pDAS1580-[1]-020.016, 4480 GM AE/HA
  Average % Injury across locations at 14 DAT: 4%
[4]; 2,4-D at 560 g ae/ha (1× field application rate)
  injury: 63%
[4]; 280 GM AE/HA
  Average % Injury across locations at 14 DAT: 48%
[4]; 560 GM AE/HA
  Average % Injury across locations at 14 DAT: 63%
[4]; 1120 GM AE/HA
  Average % Injury across locations at 14 DAT: 78%
[4]; 2240 GM AE/HA
  Average % Injury across locations at 14 DAT: 87%
[4]; 4480 GM AE/HA
  Average % Injury across locations at 14 DAT: 92%
Wildtype tobacco; 560 g ae/ha
  Average % injury 14 DAT: 63%
Wildtype tobacco; 1120 g ae/ha
  Average % injury 14 DAT: 80%
Wildtype tobacco; 2240 g ae/ha
  Average % injury 14 DAT: 90%
[5]; 560 g ae/ha
  Average % injury 14 DAT: 0%
[5]; 1120 g ae/ha
  Average % injury 14 DAT: 0%
[5]; 2240 g ae/ha
  Average % injury 14 DAT: 0%
[6]; 560 g ae/ha
  Average % injury 14 DAT: 0%
[6]; 1120 g ae/ha
  Average % injury 14 DAT: 4%
[6]; 2240 g ae/ha
  Average % injury 14 DAT: 9%

## C[C@@H](Oc1ccc(Cl)cc1Cl)C(=O)O [(R)-dichlorprop, R-2,4-dichlorophenoxypropionic acid]
Wildtype tobacco; 280 g ae/ha
  Average % injury 14 DAT: 25%
Wildtype tobacco; 560 g ae/ha
  Average % injury 14 DAT: 60%
Wildtype tobacco; 1120 g ae/ha
  Average % injury 14 DAT: 80%
[5]; 280 g ae/ha
  Average % injury 14 DAT: 0%
[5]; 560 g ae/ha
  Average % injury 14 DAT: 0%
[5]; 1120 g ae/ha
  Average % injury 14 DAT: 0%
[6]; 280 g ae/ha
  Average % injury 14 DAT: 0%
[6]; 560 g ae/ha
  Average % injury 14 DAT: 0%
[6]; 1120 g ae/ha
  Average % injury 14 DAT: 3%

## O=C(O)COc1nc(Cl)c(Cl)cc1Cl [triclopyr]
[1]; [7]
  average injury across the two events: 6%
[1]; AAD-12 event 3759(18)030.001, 840 GM AE/HA
  % Visual Injury at 14 DAT: 6 ab %
[1]; AAD-12 event 3759(20)018.001, 840 GM AE/HA
  % Visual Injury at 14 DAT: 6 a %
[2]; [7]
  visual injury, average across the two events: 3%
[2]; AAD-12 4101(0)003.R.003.AF, 840 g ae/ha
  % Visual Injury 14DAT: 3%
[2]; AAD-12 4101(0)005.001.AF, 840 g ae/ha
  % Visual Injury 14DAT: 4%
[2]; AAD-12 event 4101(0)003.R.003.AF, 840 g ae/ha
  Brace Root Injury Rating (0-10 scale) 28DAT: 0
[2]; AAD-12 event 4101(0)005.001.AF, 840 g ae/ha
  Brace Root Injury Rating (0-10 scale) 28DAT: 0
[2]; Triclopyr at 840 g ae/ha
  brace root injury: no brace root injury
[3]; [7]
  average injury across the three lines: 5%
[3]; pDAS1580-[1]-004.001, 840 GM AE/HA
  Average % Injury across locations at 14 DAT: 5%
[3]; pDAS1580-[1]-018.001, 840 GM AE/HA
  Average % Injury across locations at 14 DAT: 4%
[3]; pDAS1580-[1]-020.016, 840 GM AE/HA
  Average % Injury across locations at 14 DAT: 5%
[4]; 2× rate of triclopyr (840 g ae/ha)
  injury: 53%
[4]; 840 GM AE/HA
  Average % Injury across locations at 14 DAT: 53%
